Measurements: patent US20230047208A1, “RNA Splicing Modulation” (The General Hospital Corporation, priority 2020, published 2023)

Tested on: wildtype (WT) human fibroblast cell lines
Experiment: Transcriptome-wide splicing by RNA sequencing (RNASeq), exon triplet PSI change;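 for Effect: six WT fibroblast lines treated seven days versus DMSO vehicle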;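 for T-PSI: T-PSI is average treated PSI after seven days of treatment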
Format: cell-based
Parameters: key to Effect: Exclusion; Inclusion; Unchanged
From the text: FIG. 2A provides a representation of an exon triplet. Exon U is upstream of Exon X, which is upstream of Exon D. R1, R2 and R3 represent RNA sequencing (RNASeq) reads spanning the regions between two adjacent exons. UI1, I1X, XI2 and I2D are four regions flanking the four splice sites of the exon-triplet. Each flanking region consists of 25 exonic base pairs and 75 intronic base pairs.
FIG. 2B provides a volcano plot showing the ψ (PSI: Percent Spliced-In) changes in splicing after treatment with Compound (I). Each dot represents one of the 161,097 expressed exon triplets in human fibroblasts. The x axis represents the ψ changes after treatment and the y axis represents the False Discovery Rate (FDR) (log 10 transformed). […] The horizontal dashed line indicates an FDR of 0.1. The dots on the right side of the right vertical dashed line and above the horizontal dashed line represent the exon-triplets with an increase for Exon X inclusion (Δψ≥0.1 and FDR<0.1) while the dots on left side of the left vertical dashed line and above the horizontal dashed line represent an increase for Exon X exclusion (Δψ≤−0.1 and FDR<0.1). Black dots in-between the two vertical dashed lines represent exon-triplets unchanged from the treatment.
In some aspects, analysis is performed on data derived from the assay to measure the magnitude of splicing to determine the amount of exons spliced into an mRNA transcript that is produced in the presence of Compound (I) relative to the amount in the absence of Compound (I) or presence of a negative control. In a preferred aspect, the method utilized is calculation of change in Percent Spliced In (ΔPSI). […] The ΔPSI value is derived from the formula: […]
The values for “a” and “b” represent the number of reads supporting the probability for potential inclusion or exclusion of an exon in an RNA transcript. The “a” value is derived from the number of reads within an exon triplet covering, in 5′ to 3′ order: the last few bases (>1 nucleotide) of an upstream exon operably linked to the first few bases (>1 nucleotide) of a middle exon. The “b” value is derived from the number of reads within an exon triplet covering, in 5′ to 3′ order: the last few bases (>1 nucleotide) of the middle exon operably linked to the first few bases (>1 nucleotide) of a downstream exon. The number of reads will indicate whether the splice junction of a middle exon has been identified as potentially having a CNN Motif(s) by the CNN Model described herein, wherein the inclusion or exclusion of the middle exon may be modulated in the presence of Compound (I) to produce one or more mature RNA isoforms from the gene transcript. The value for “c” represents the number of reads supporting the exclusion of the middle exon.
The effect on splicing modulation and corresponding splice differences toward exon inclusion or exclusion was determined by counting the RNASeq reads covering two splice junctions of exon triplets (three consecutive exons: Exon U, Exon X, Exon D) and the corresponding intervening introns, then comparing the change in Percent Spliced In (ΔPSI or Δψ) of the middle exon (Exon X) after treatment (as shown in FIG. 2A)^52,53. 934 exon triplets were identified showing differential middle exon inclusion or exclusion in response to Compound (I) treatment. Of these, 254 were exon inclusion events (Δψ≥0.1 and FDR<0.1) and 680 were exon exclusion events (Δψ≤−0.1 and FDR<0.1) (as shown in FIG. 2B). […] The splicing results were evaluated by RT-PCR in independent replicate experiments, confirming all the calculated Δψ values. […]

[1] = NSMCE2 Exon 126168242-126168340

Clc1nc(NCc2ccncc2)c2cc[nH]c2n1 [Compound (I), 2-chloro-N-(pyridin-4-ylmethyl)-7H-pyrrolo[2,3-d]pyrimidin-4-amine]
Effect (NIN Exon 51233025-51233114): Unc | T-PSI (NIN Exon 51233025-51233114): 0.896 | ΔPSI (NIN Exon 51233025-51233114): 0.008 | Effect (NIPA2 Exon 23027801-23027922): Exc | T-PSI (NIPA2 Exon 23027801-23027922): 0.326 | ΔPSI (NIPA2 Exon 23027801-23027922): −0.185 | Effect (NIPA2 Exon 23033278-23033413): Exc | T-PSI (NIPA2 Exon 23033278-23033413): 0.608 | ΔPSI (NIPA2 Exon 23033278-23033413): −0.163 | Effect (NLRC5 Exon 57110731-57110814): Exc | T-PSI (NLRC5 Exon 57110731-57110814): 0.857 | ΔPSI (NLRC5 Exon 57110731-57110814): −0.122 | Effect (NLRX1 Exon 119043065-119043134): Exc | T-PSI (NLRX1 Exon 119043065-119043134): 0.742 | ΔPSI (NLRX1 Exon 119043065-119043134): −0.143 | Effect (NPEPPS Exon 45654447-45654526): Inc | T-PSI (NPEPPS Exon 45654447-45654526): 0.172 | ΔPSI (NPEPPS Exon 45654447-45654526): 0.135 | Effect (NPR2 Exon 35802729-35802800): Exc | T-PSI (NPR2 Exon 35802729-35802800): 0.878 | ΔPSI (NPR2 Exon 35802729-35802800): −0.101 | Effect (NPRL3 Exon 167300-167374): Exc | T-PSI (NPRL3 Exon 167300-167374): 0.697 | ΔPSI (NPRL3 Exon 167300-167374): −0.155 | Effect (NPRL3 Exon 174936-175072): Unc | T-PSI (NPRL3 Exon 174936-175072): 0.206 | ΔPSI (NPRL3 Exon 174936-175072): 0.006 | Effect (NPRL3 Exon 180521-180590): Unc | T-PSI (NPRL3 Exon 180521-180590): 0.858 | ΔPSI (NPRL3 Exon 180521-180590): 0.003 | Effect (NRG1 Exon 32620736-32620877): Inc | T-PSI (NRG1 Exon 32620736-32620877): 0.510 | ΔPSI (NRG1 Exon 32620736-32620877): 0.182 | Effect (NSFL1C Exon 1436359-1436364): Exc | T-PSI (NSFL1C Exon 1436359-1436364): 0.345 | ΔPSI (NSFL1C Exon 1436359-1436364): −0.153 | Effect (NSFL1C Exon 1436359-1436515): Exc | T-PSI (NSFL1C Exon 1436359-1436515): 0.214 | ΔPSI (NSFL1C Exon 1436359-1436515): −0.123 | Effect [1]: Inc | T-PSI [1]: 0.162 | ΔPSI [1]: 0.133 | Effect (NSUN4 Exon 46812593-46812747): Exc | T-PSI (NSUN4 Exon 46812593-46812747): 0.817 | ΔPSI (NSUN4 Exon 46812593-46812747): −0.124 | Effect (NT5C2 Exon 104871502-104871562): Exc | T-PSI (NT5C2 Exon 104871502-104871562): 0.351 | ΔPSI (NT5C2 Exon 104871502-104871562): −0.306 | Effect (NTMT1 Exon 132394929-132395080): Unc | T-PSI (NTMT1 Exon 132394929-132395080): 0.828 | ΔPSI (NTMT1 Exon 132394929-132395080): −0.009 | Effect (NTPCR Exon 233091303-233091465): Unc | T-PSI (NTPCR Exon 233091303-233091465): 0.785 | ΔPSI (NTPCR Exon 233091303-233091465): 0.009 | Effect (NUB1 Exon 151046159-151046326): Exc | T-PSI (NUB1 Exon 151046159-151046326): 0.858 | ΔPSI (NUB1 Exon 151046159-151046326): −0.126 | Effect (NUBP2 Exon 1836758-1836956): Unc | T-PSI (NUBP2 Exon 1836758-1836956): 0.575 | ΔPSI (NUBP2 Exon 1836758-1836956): 0.006 | Effect (NUMB Exon 73833605-73833689): Unc | T-PSI (NUMB Exon 73833605-73833689): 0.697 | ΔPSI (NUMB Exon 73833605-73833689): −0.003 | Effect (NUP43 Exon 150059779-150059914): Exc | T-PSI (NUP43 Exon 150059779-150059914): 0.865 | ΔPSI (NUP43 Exon 150059779-150059914): −0.118 | Effect (NUP62 Exon 50430951-50431105): Inc | T-PSI (NUP62 Exon 50430951-50431105): 0.787 | ΔPSI (NUP62 Exon 50430951-50431105): 0.124 | Effect (NUP98 Exon 3707294-3707424): Unc | T-PSI (NUP98 Exon 3707294-3707424): 0.862 | ΔPSI (NUP98 Exon 3707294-3707424): −0.009 | Effect (NUPL2 Exon 23235458-23235534): Exc | T-PSI (NUPL2 Exon 23235458-23235534): 0.602 | ΔPSI (NUPL2 Exon 23235458-23235534): −0.244 | Effect (NUTF2 Exon 67881181-67881359): Unc
